Source: patent publication US20150192565A1, “METHOD FOR EVALUATING THERAPEUTIC EFFECT OF T[…] APPLICATION THEREOF” (NATIONAL TAIWAN UNIVERSITY, priority 2014, published 2015)

Legend:
HCC [1] = assay: Thalidomide as adjuvant therapy after curative resection for HCC, HCC recurrence by LHX4 expression group (Kaplan-Meier); type: in vivo, human; settings: for HCC recurrence rate (%) / Number of HCC recurrence patients: three-year
Protocol: Samples of liver tissue were obtained from 48 patients, who suffered HCC at stage II or III (defined by American Joint Committee on Cancer, AJCC) and underwent curative resection for the HCC. All of the patients were enrolled within 4 weeks after surgery. 27 of the patients received Thalidomide 200 mg/day and the others received a placebo 200 mg/day for 12 months or until HCC recurrence.
The sample of liver tissue from each patient includes tumorous tissue and non-tumorous tissue neighboring the tumorous tissue. The respective Lhx4 proteins in the tumorous and non-tumorous tissues of each patient were detected using western blot and then quantified by ImageJ software (published by the National Institutes of Health of United States of America). The quantified results of the Lhx4 proteins in the tumorous and non-tumorous tissues were respectively normalized based on the quantified results of β-actin in the tumorous and non-tumorous tissues of the corresponding patient to obtain the (protein) expression levels of the LHX4 gene in the tumorous and non-tumorous tissues of the patient.
For each and every patient, the expression level of the LHX4 gene in the tumorous tissue (called “T” hereinafter) was divided by the expression level of the LHX4 gene in the non-tumorous tissue (called “NT” hereinafter) to obtain a T/NT ratio, which represents the decreasing magnitude of the expression level of the LHX4 gene in the tumorous tissue when compared with the non-tumorous tissue.
In an embodiment, the correlation between the decreasing magnitude of the expression level of the LHX4 gene in the tumorous tissue of a patient and the therapeutic effect of Thalidomide on the liver cancer of the patient is indicated by the HCC recurrence of the patient. Specifically, the end date of observation of a patient's HCC recurrence is set as the date three years after the surgery for the liver cancer.
In an embodiment, the 48 patients were divided into two groups according the T/NT ratio to evaluate the therapeutic effect of Thalidomide on the patients. […]
Each of FIGS. 2A, 2B and 2C show the respective 3-year HCC recurrence-free survival days (from the date that the patient underwent the surgery for the liver cancer to the date of observing the HCC recurrence of the patient) of the patients, where the event in the curves is the first HCC recurrence of a patient after the surgery.
In an embodiment, for each of the 48 patients, the LHX4 expression level in the tumorous tissue was obtained through normalizing the quantified result of the western blot of the Lhx4 protein of the tumorous tissue based on a specific amount of β-actin in the tumorous tissue. After the normalization, the LHX4 expression levels in the tumorous tissue of all the patients, normalized by the same amount of β-actin, were obtained. […] Each of FIGS. 3A, 3B and 3C show the respective 3-year HCC recurrence-free survival days (from the date that the patient underwent the surgery for the liver cancer to the date of observing the HCC recurrence of the patient) of the patients, where the event of the curves is the first HCC recurrence in a patient after the surgery.

HCC [2] = settings: adjuvant therapy after surgical resection; placebo 33%; cited from earlier work
[3] = T/NT ratio < 0.2, 13 total patients
[4] = T/NT ratio ≧ 0.2, 14 total patients

## O=C1CCC(N2C(=O)c3ccccc3C2=O)C(=O)N1 (racemic) [Thalidomide, (RS)-2-(2,6-dioxopiperidin-3-yl)-1H-isoindole-1,3(2H)-dione]
HCC [1]; groups divided by arithmetic average of LHX4 expression levels in tumorous tissue, patients receiving Thalidomide
  mean 3-year HCC recurrence-free survival days, lower group compared with higher group: obviously delayed
HCC [1]; higher group, LHX4 expression level in tumorous tissue not lower than 0.17 (median), 14 patients, FIG. 3B/3C, P=0.567 vs placebo (535 days)
  mean 3-year HCC recurrence-free survival days: 466 days
HCC [1]; higher group, T/NT ratio not lower than 0.2, Thalidomide 200 mg/day, 14 patients, FIG. 1B/1C, P=0.687 vs placebo (535 days)
  mean 3-year HCC recurrence-free survival days: 521 days
HCC [1]; higher group, T/NT ratio not lower than 0.5, 5 patients, FIG. 2B/2C, P=0.272 vs placebo (493 days)
  mean 3-year HCC recurrence-free survival days: 344 days
HCC [1]; lower group, LHX4 expression level in tumorous tissue lower than 0.17 (median), 13 patients, FIG. 3A/3C, P=0.033 vs placebo (526 days)
  mean 3-year HCC recurrence-free survival days: 833 days
HCC [1]; lower group, T/NT ratio lower than 0.2, Thalidomide 200 mg/day, 13 patients, FIG. 1A/1C, P=0.06 vs placebo (526 days)
  mean 3-year HCC recurrence-free survival days: 744 days
HCC [1]; lower group, T/NT ratio lower than 0.5, 22 patients, FIG. 2A/2C, P=0.2 vs placebo (545 days)
  mean 3-year HCC recurrence-free survival days: 711 days
HCC [1]; [3]
  HCC recurrence rate (%): 38.5%
  Number of HCC recurrence patients: 5
HCC [1]; [4]
  HCC recurrence rate (%): 85.7%
  Number of HCC recurrence patients: 12
HCC [2]
  two-year HCC recurrence-free survival rate: 65%
